Laboratory results reported in ChEMBL document CHEMBL1201862, “PubChem BioAssay data set” (2004).
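Tested at 5 concentrations; 48 h exposure; 96-well plates; endpoints linearly interpolated, else capped at highest concentration. At the GI50, growth is halved.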 Active and inactive are the calls of the source. Rule as the data show it: active = GI50 up to about 1.1 µM and inactive = higher.

Key:
Assay in all cases: NCI anticancer screen, dose series, 48 h
A549 = system: A549
COLO 205 = system: COLO 205
DU-145 = system: DU-145
EKVX = system: EKVX
HCT-15 = system: HCT-15
HOP-62 = system: HOP-62
Hs-578T = system: Hs-578T
IGROV-1 = system: IGROV-1
LOX IMVI = system: LOX IMVI
MCF7 = system: MCF7
NCI-H226 = system: NCI-H226
NCI-H460 = system: NCI-H460
NCI/ADR-RES = system: NCI/ADR-RES
OVCAR-4 = system: OVCAR-4
OVCAR-5 = system: OVCAR-5
OVCAR-8 = system: OVCAR-8
SF-268 = system: SF-268
SN12C = system: SN12C
U-251 = system: U-251
UO-31 = system: UO-31

Structure (SMILES) | GI50 (A549) | GI50 (COLO 205) | GI50 (DU-145) | GI50 (EKVX) | GI50 (HCT-15) [µM] | GI50 (HOP-62) | GI50 (Hs-578T) | GI50 (IGROV-1) | GI50 (LOX IMVI) | GI50 (MCF7) | GI50 (NCI-H226) | GI50 (NCI-H460) | GI50 (NCI/ADR-RES) | GI50 (OVCAR-4) | GI50 (OVCAR-5) | GI50 (OVCAR-8) | GI50 (SF-268) | GI50 (SN12C) | GI50 (U-251) | GI50 (UO-31)
CN(C)C(C1=C(O)C(c2ccccc2)N(c2ccccc2)C1=O)N1CCOCC1 (centres undefined) | > 10 µM (inactive) | > 10 µM (inactive) | > 10 µM (inactive) | > 10 µM (inactive) | > 10 | > 10 µM (inactive) | > 10 µM (inactive) | > 10 µM (inactive) | > 10 µM (inactive) | > 10 µM (inactive) | > 10 µM (inactive) | > 10 µM (inactive) | > 10 µM (inactive) | > 10 µM (inactive) | > 10 µM (inactive) | > 10 µM (inactive) | > 10 µM (inactive) | > 10 µM (inactive) | > 10 µM (inactive) | > 10 µM (inactive)
Cc1cc2oc(C)c(S(=O)(=O)NC(=O)Nc3ccc(Cl)cc3)c(=O)c2c(=O)o1 | > 100 µM (inactive) | > 100 µM (inactive) | > 100 µM (inactive) | > 100 µM (inactive) | 23 | > 100 µM (inactive) | > 100 µM (inactive) | > 100 µM (inactive) | > 100 µM (inactive) | > 100 µM (inactive) | > 100 µM (inactive) | > 100 µM (inactive) | > 100 µM (inactive) | > 100 µM (inactive) | > 100 µM (inactive) | > 100 µM (inactive) | > 100 µM (inactive) | > 100 µM (inactive) | > 100 µM (inactive) | > 100 µM (inactive)
O/N=C1\CSc2ccccc2C1 | > 100 µM (inactive) | > 100 µM (inactive) | > 100 µM (inactive) | 30.6 µM (inactive) | > 100 | > 100 µM (inactive) | 41.8 µM (inactive) | > 100 µM (inactive) | > 100 µM (inactive) | > 100 µM (inactive) | > 100 µM (inactive) | > 100 µM (inactive) | > 100 µM (inactive) | > 100 µM (inactive) | > 100 µM (inactive) | > 100 µM (inactive) | > 100 µM (inactive) | > 100 µM (inactive) | > 100 µM (inactive) | > 100 µM (inactive)
O=c1c(Cc2ccc(Cl)cc2)nnc2sc(-c3ccc(-c4ccc(Cl)cc4Cl)o3)nn12 | 80.5 µM (inactive) | 72.3 µM (inactive) | 70 µM (inactive) | 29.4 µM (inactive) | 41.4 | 43.2 µM (inactive) | > 100 µM (inactive) | > 100 µM (inactive) | 47.1 µM (inactive) | 30.5 µM (inactive) | > 100 µM (inactive) | 59.6 µM (inactive) | 80.5 µM (inactive) | 42.9 µM (inactive) | 94.8 µM (inactive) | 48.6 µM (inactive) | > 100 µM (inactive) | 44.6 µM (inactive) | 31 µM (inactive) | 57.8 µM (inactive)
N#Cc1c(O)c(C=O)c(=O)n2c1[nH]c1ccccc12 | > 100 µM (inactive) | > 100 µM (inactive) | > 100 µM (inactive) | > 100 µM (inactive) | > 100 | > 100 µM (inactive) | > 100 µM (inactive) | > 100 µM (inactive) | > 100 µM (inactive) | 44.3 µM (inactive) | > 100 µM (inactive) | > 100 µM (inactive) | > 100 µM (inactive) | > 100 µM (inactive) | > 100 µM (inactive) | > 100 µM (inactive) | > 100 µM (inactive) | > 100 µM (inactive) | > 100 µM (inactive) | > 100 µM (inactive)
CCCCCC(=O)OCC1(CO)C/C(=C/CC(C(C)C)C(C)C)C(=O)O1 (centres undefined) | 51.1 µM (inactive) | 26.5 µM (inactive) | 59.6 µM (inactive) | > 75 µM (inactive) | 73.1 | 38.7 µM (inactive) | 33.3 µM (inactive) | 17.8 µM (inactive) | 10.6 µM (inactive) | 40.9 µM (inactive) | > 75 µM (inactive) | 24.8 µM (inactive) | > 75 µM (inactive) | 53.2 µM (inactive) | > 75 µM (inactive) | 21.9 µM (inactive) | > 75 µM (inactive) | 30.5 µM (inactive) | 44.4 µM (inactive) | 17.2 µM (inactive)
CC(CC(=O)O)(CC(=O)O)c1ccccc1 | > 100 µM (inactive) | > 100 µM (inactive) | > 100 µM (inactive) | > 100 µM (inactive) | > 100 | > 100 µM (inactive) | > 100 µM (inactive) | > 100 µM (inactive) | > 100 µM (inactive) | > 100 µM (inactive) | > 100 µM (inactive) | > 100 µM (inactive) | > 100 µM (inactive) | > 100 µM (inactive) | > 100 µM (inactive) | > 100 µM (inactive) | > 100 µM (inactive) | > 100 µM (inactive) | > 100 µM (inactive) | > 100 µM (inactive)
Cc1cnccc1/N=N/c1ccc(N(C)C)cc1 | 30.7 µM (inactive) | 11.9 µM (inactive) | 66.8 µM (inactive) | 9.55 µM (inactive) | 15.1 | 56.5 µM (inactive) | 29.9 µM (inactive) | 7.8 µM (inactive) | 17.4 µM (inactive) | 14.4 µM (inactive) | 4.82 µM (inactive) | 25.7 µM (inactive) | 13 µM (inactive) | 16.9 µM (inactive) | 28 µM (inactive) | 22.1 µM (inactive) | 16.8 µM (inactive) | 21.9 µM (inactive) | 21.3 µM (inactive) | 18.1 µM (inactive)
CC1=CC(=O)/C(=C/N2CCNC2=S)C(=O)O1 | > 100 µM (inactive) | > 100 µM (inactive) | > 100 µM (inactive) | > 100 µM (inactive) | > 100 | > 100 µM (inactive) | > 100 µM (inactive) | > 100 µM (inactive) | > 100 µM (inactive) | > 100 µM (inactive) | > 100 µM (inactive) | > 100 µM (inactive) | > 100 µM (inactive) | > 100 µM (inactive) | > 100 µM (inactive) | > 100 µM (inactive) | > 100 µM (inactive) | > 100 µM (inactive) | > 100 µM (inactive) | > 100 µM (inactive)
COc1c2c(c3c(c1OC)c(=O)c1ccccc1n3C)OCO2 | > 100 µM (inactive) | > 100 µM (inactive) | > 100 µM (inactive) | 45.2 µM (inactive) | > 100 | > 100 µM (inactive) | > 100 µM (inactive) | > 100 µM (inactive) | > 100 µM (inactive) | > 100 µM (inactive) | > 100 µM (inactive) | 36.1 µM (inactive) | > 100 µM (inactive) | 76.2 µM (inactive) | > 100 µM (inactive) | > 100 µM (inactive) | > 100 µM (inactive) | > 100 µM (inactive) | > 100 µM (inactive) | > 100 µM (inactive)
N#CCCCCC12C3C(=O)N(c4ccccc4)C(=O)C3ON1O[C@@H]1C(=O)N(c3ccccc3)C(=O)[C@@H]12 (some centres undefined) | > 100 µM (inactive) | > 100 µM (inactive) | > 100 µM (inactive) | > 100 µM (inactive) | > 100 | > 100 µM (inactive) | > 100 µM (inactive) | > 100 µM (inactive) | > 100 µM (inactive) | > 100 µM (inactive) | > 100 µM (inactive) | > 100 µM (inactive) | > 100 µM (inactive) | > 100 µM (inactive) | > 100 µM (inactive) | > 100 µM (inactive) | > 100 µM (inactive) | > 100 µM (inactive) | > 100 µM (inactive) | > 100 µM (inactive)
O=C1C(Cl)=C(OCCCCl)C(=O)c2c(O)ccc(O)c21 | 6.4 µM (inactive) | 1.53 µM (inactive) | 9.73 µM (inactive) | 17.7 µM (inactive) | 1.84 | 8.99 µM (inactive) | 4.91 µM (inactive) | 4.18 µM (inactive) | 1.76 µM (inactive) | 1.55 µM (inactive) | 16.9 µM (inactive) | 6.61 µM (inactive) | 3.69 µM (inactive) | 2.74 µM (inactive) | 12.4 µM (inactive) | 7.06 µM (inactive) | 3.08 µM (inactive) | 2.26 µM (inactive) | 5.9 µM (inactive) | 6.55 µM (inactive)
O=P1(N(CCCl)CCCl)NCCCO1 (centres undefined) [CYCLOPHOSPHAMIDE ANHYDROUS] | > 239 µM (inactive) | > 250 µM (inactive) | > 250 µM (inactive) | > 250 µM (inactive) | > 250 | > 247 µM (inactive) | > 250 µM (inactive) | > 216 µM (inactive) | 248 µM (inactive) | > 250 µM (inactive) | 249 µM (inactive) | > 238 µM (inactive) | > 250 µM (inactive) | > 250 µM (inactive) | > 239 µM (inactive) | > 238 µM (inactive) | > 250 µM (inactive) | > 250 µM (inactive) | > 250 µM (inactive) | > 250 µM (inactive)
CCNc1nc(N)c(C(=O)c2ccc(Cl)cc2)s1 | 20.7 µM (inactive) | 18.9 µM (inactive) | 32.7 µM (inactive) | 4.52 µM (inactive) | 26.9 | 44.2 µM (inactive) | 4.86 µM (inactive) | 25.1 µM (inactive) | 40.1 µM (inactive) | 28.6 µM (inactive) | 22.3 µM (inactive) | 18.8 µM (inactive) | 42.1 µM (inactive) | 36.3 µM (inactive) | 32.7 µM (inactive) | – | 30.7 µM (inactive) | 49.7 µM (inactive) | 36.7 µM (inactive) | 15 µM (inactive)
